The values below come from patent US6670364B2, “Antagonists of MCP-1 function and methods of use thereof” (Telik, Inc., priority 2001, dated 2003).

Structures can show the parent of a compound that is named as a salt.

Chain of hMCP-1 (P13500 24-99): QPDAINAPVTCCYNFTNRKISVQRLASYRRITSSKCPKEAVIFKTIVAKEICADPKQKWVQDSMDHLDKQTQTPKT

This assay has as its target hMCP-1 (Homo sapiens, UniProt P13500). The assay can be described thus: Inhibition of MCP-1-induced chemotaxis (48-well chamber, Example 21). The format is cell-based. Further details: purchased PeproTech. Particulars: THP-1 cells, 2.5 nM hMCP-1, 48-well chamber, 2 hr. The procedure:
A 48-well microchemotaxis chamber with a 5 μm-pore size, PVP-coated polycarbonate filter membrane (Neuro Probe Inc., Cabin John, Md.) was used for testing. Compounds were prepared as 10 mM stock solution in DMSO. THP-1 cells were washed with RPMI 1640 medium supplemented with 0.5% BSA and 25 mM HEPES, pH 7.4, and suspended at a density of 4×10^6 cells/mL in the same medium. A 150 μL aliquot of this suspension was treated with an equal volume of test compound solution and the mixture incubated at 37° C. for 15 min. The lower chamber was loaded with 26 μL of a 2.5 nM solution of hMCP-1 (PeproTech) in medium. The filter membrane was placed over the lower chamber, followed by a silicon rubber gasket and the upper chamber. A 50 μL aliquot of the THP-1 cell suspension containing the test compound was added to the upper chamber and the assembly incubated in a 5% CO2 atmosphere at 37+ C. for 2 hr. The chamber was then disassembled and the cells remaining on the upper surface of the filter were scrapped off with a rubber scrapper. The filter was fixed with methanol, stained with Diff-Quik solution, and mounted on a slide glass. The cells that had migrated across the filter onto the lower surface were then counted by microscopic observation.
The term IC50 denotes the point on the concentration scale where inhibition reaches its midpoint. Lower therefore signals inhibition by little substance. The compound `Cc1nn(C)c2ncc(C(=O)NC(=O)Nc3cccc(OC(F)(F)F)c3)c(N3CCN(C)CC3)c12` [Compound 77] returned a half-maximal inhibitory concentration (IC50) of 0.7 µM.

In turn, `Cc1nn(C)c2ncc(C(=O)NC(=O)Nc3ccc(Cl)c(C(=O)OC(C)C)c3)c(N3CCN(C)CC3)c12` [Compound 92] gave an IC50 of 2.1 µM.

In turn, `Cc1nn(C)c2ncc(C(=O)NC(=O)Nc3cc(C(F)(F)F)cc(C(F)(F)F)c3)c(N3CCN(C)CC3)c12` [Compound 91] yielded an IC50 of 3 µM.

Compound `Cc1nn(C)c2ncc(C(=O)NC(=O)Nc3ccc(Cl)c(Cl)c3)c(N3CCN(C)CC3)c12` [Compound 71] displayed an IC50 of 4 µM.

`Cc1nn(C)c2ncc(C(=O)NC(=O)Nc3cccc(C(F)(F)F)c3)c(N3CCN(C)CC3)c12` [Compound 73] gave a half-maximal inhibitory concentration (IC50) of 1.7 µM.

Consider `Cc1nn(C)c2ncc(C(=O)NC(=O)Nc3ccc(Cl)cc3)c(N3CCN(C)CC3)c12` [Compound 70], for which the 50% inhibitory concentration (IC50) stood at 4 µM.

The compound `Cc1nn(C)c2ncc(C(=O)NC(=O)Nc3ccc(F)c(C(F)(F)F)c3)c(N3CCCN(C)CC3)c12` [Compound 108, [1,3-Dimethyl-4-(4-methyl(1,4-diazaperhydroepinyl))pyrazolo[5,4-b]pyridin-5-yl]-N-({[4-fluoro-3-(trifluoromethyl)phenyl]amino}carbonyl)carboxamide hydrochloride] gave an IC50 of 2 µM. Against the preceding compound, the IC50 is about 2-fold lower.

The compound `Cc1ccc(NC(=O)NC(=O)c2cnc3c(c(C)nn3C)c2N2CCN(C)CC2)cc1C(F)(F)F` [Compound 83] showed an IC50 of 4 µM.

Regarding `Cc1nn(C)c2ncc(C(=O)NC(=O)Nc3ccc(F)c(C(F)(F)F)c3)c(N3CCOCC3)c12` [Compound 65, (1,3-Dimethyl-4-morpholin-4-ylpyrazolo[5,4-b]pyridin-5-yl)-N-({[4-fluoro 3-(trifluoromethyl)phenyl]amino}carbonyl)carboxamide], the half-inhibitory concentration (IC50) was determined as 10 µM.

Compound `Cc1nn(C)c2ncc(C(=O)NC(=O)Nc3ccc(F)c(C(F)(F)F)c3)c(N(CCO)CCO)c12` [Compound 51, {4-[Bis(2-hydroxyethyl)amino]-1,3-dimethylpyrazolo[5,4-b]pyridin-5-yl}-N-({[4-fluoro-3-(trifluoromethyl)phenyl]amino}carbonyl)carboxamide] came in with an IC50 of 1.6 µM.

`Cc1nn(C)c2ncc(C(=O)NC(=O)Nc3cc(O)cc(C(F)(F)F)c3)c(N3CCN(C)CC3)c12` [Compound 89] displayed an IC50 of 4 µM.

Compound `Cc1nn(C)c2ncc(C(=O)NC(=O)Nc3cccc(Cl)c3)c(N3CCN(C)CC3)c12` [Compound 68] had an IC50 of 4 µM.

`Cc1nn(C)c2ncc(C(=O)NC(=O)Nc3cccc(OC(C)C)c3)c(N3CCN(C)CC3)c12` [Compound 75]: the IC50 worked out at 0.7 µM.

As to `Cc1nn(C)c2ncc(C(=O)NC(=O)Nc3ccc(C(=O)N4CCOCC4)c(Cl)c3)c(N3CCN(C)CC3)c12` [Compound 94], the half-maximal inhibitory concentration (IC50) stood at 1.2 µM.

`Cc1nn(C)c2ncc(C(=O)NC(=O)Nc3ccc(F)c(C(F)(F)F)c3)c(NCCN(C)C)c12` [Compound 46, (4-{[2-(Dimethylamino)ethyl]amino}-1,3-dimethylpyrazolo[5,4-b]pyridin-5-yl)-N-({[4-fluoro-3-(trifluoromethyl)phenyl]amino}carbonyl)carboxamide hydrochloride] came in with a 50% inhibitory concentration (IC50) of 2 µM.

Take `Cc1nn(C)c2ncc(C(=O)NC(=O)Nc3ccc(Cl)c(C(=O)N4CCOCC4)c3)c(N3CCN(C)CC3)c12` [Compound 95]: it took 1.9 µM to reach half-maximal inhibition (IC50).

As to `Cc1nn(C)c2ncc(C(=O)NC(=O)Nc3ccc(F)c(C(F)(F)F)c3)c(N3CCN(c4ccccc4)CC3)c12` [Compound 103, [1,3-Dimethyl-4-(4-phenylpiperazinyl)pyrazolo[5,4-b]pyridin-5-yl]-N-({[4-fluoro-3-(trifluoromethyl)phenyl]amino}carbonyl)carboxamide], the 50% inhibitory concentration (IC50) amounted to 2 µM.

In the case of `Cc1nn(C)c2ncc(C(=O)NC(=O)Nc3cccc(C(C)C)c3)c(N3CCN(C)CC3)c12` [Compound 74], inhibition was half-maximal at 4 µM (IC50).

`Cc1nn(C)c2ncc(C(=O)NC(=O)Nc3ccc(F)c(C(F)(F)F)c3)c(O)c12` [Compound 43, N-({[4-fluoro-3-(trifluoromethyl)phenyl]amino}carbonyl)(4-hydroxy-1,3-dimethylpyrazolo[5,4-b]pyridin-5-yl)carboxamide] came in with a concentration for half-maximal inhibition (IC50) of 7.7 µM.

The compound `Cc1nn(C)c2ncc(C(=O)NC(=O)Nc3ccc(F)c(C(F)(F)F)c3)c(NCCC34CCCN3CCC4)c12` [Compound 60, {1,3-Dimethyl-4-[(2-perhydropyrrolizin-7a-ylethyl)amino]pyrazolo[5,4-b]pyridin-5-yl}-N-({[4-fluoro-3-(trifluoromethyl)phenyl]amino}carbonyl)carboxamide hydrochloride] gave a 50% inhibitory concentration (IC50) of 1.2 µM.

As to `Cc1nn(C)c2ncc(C(=O)NC(=O)Nc3ccc(C(=O)O)c(OC(C)C)c3)c(N3CCN(C)CC3)c12` [Compound 76], the half-inhibitory concentration (IC50) was 4 µM.

`Cc1nn(C)c2ncc(C(=O)NC(=O)Nc3cccc(C(F)(F)F)c3)c(N3CCN(C)CC3)c12` [Compound 72] returned a concentration for half-maximal inhibition (IC50) of 3.6 µM.

Compound `Cc1nn(C)c2ncc(C(=O)NC(=O)Nc3ccc(F)c(C(F)(F)F)c3)c(NCc3ccccc3)c12` [Compound 61] registered an IC50 of 20 µM. This IC50 is about 5.6-fold higher than that of the compound before.

In turn, `Cc1nn(C)c2ncc(C(=O)NC(=O)Nc3ccc(F)c(C(F)(F)F)c3)c(N(C)C)c12` [Compound 44, [4-(Dimethylamino)-1,3-dimethylpyrazolo[5,4-b]pyridin-5-yl]-N-({[4-fluoro-3-(trifluoromethyl)phenyl]amino}carbonyl)carboxamide] yielded a half-inhibitory concentration (IC50) of 8.2 µM.

For `Cc1nn(C)c2ncc(C(=O)NC(=O)Nc3ccc(F)c(C(F)(F)F)c3)c(N3CCCCC3)c12` [Compound 64, (1,3-Dimethyl-4-piperidylpyrazolo[5,4-b]pyridin-5-yl)-N-({[4-fluoro-3-(trifluoromethyl)-phenyl]amino}carbonyl)carboxamide], the 50% inhibitory concentration (IC50) is 2 µM.

Compound `Cc1nn(C)c2ncc(C(=O)NC(=O)Nc3cccc(-c4nccs4)c3)c(N3CCN(C)CC3)c12` [Compound 78] returned an IC50 of 0.9 µM.

`Cc1nn(C)c2ncc(C(=O)NC(=O)Nc3ccc(O)c(C(F)(F)F)c3)c(N3CCN(C)CC3)c12` [Compound 87] had an IC50 of 4 µM.

Turning to `Cc1nn(C)c2ncc(C(=O)NC(=O)Nc3ccc(F)c(C(F)(F)F)c3)c(-[n+]3ccc(N)cc3)c12` [Compound 106, 4-Amino-1-{5-[N-({[4-fluoro-3-(trifluoromethyl)phenyl]amino}carbonyl)carbamoyl]-1,3-dimethylpyrazolo[5,4-b]pyridin-4-yl}pyridinium chloride], the half-inhibitory concentration (IC50) is 0.4 µM. This IC50 is about 10-fold lower than that of the compound before.

Compound `Cc1nn(C)c2ncc(C(=O)NC(=O)Nc3cccc(-c4ccccc4)c3)c(N3CCN(C)CC3)c12` [Compound 80] registered an IC50 of 4 µM. This IC50 lies about 10-fold higher than the previous one.

The compound “[4-(4-Ethylpiperazinyl)-1,3-dimethylpyrazolo[5,4-b]pyridin-5-yl]-N-({[4-fluoro-3-(trifluoromethyl)phenyl]amino}carbonyl)carboxamide hydrochloride [Compound 100]” displayed an IC50 of 0.38 µM.

Take `Cc1nn(C)c2ncc(C(=O)NC(=O)Nc3ccc(F)c(C(F)(F)F)c3)c(N3CCNCC3)c12` [Compound 67]: the concentration for half-maximal inhibition (IC50) amounted to 1.8 µM.

The compound `Cc1nn(C)c2ncc(C(=O)NC(=O)Nc3cccc(Br)c3)c(N3CCN(C)CC3)c12` [Compound 69] registered a half-maximal inhibitory concentration (IC50) of 4 µM. This IC50 is about 2.2-fold higher than that of the compound before.
